In brackets after ≈: the same amount, converted by molar mass.
Legend:
[1] = target: recombinant human Estrogen Receptor alpha ligand binding domain (ER alpha-LBD (GST)) (Homo sapiens (Human), UniProt P03372); test: ERα binding assay (LanthaScreen TR-FRET competition)
hERG potassium channel = hERG potassium channel (Homo sapiens (Human), UniProt Q12809)
Protocol: The assay was conducted as follows with all reagents used at room temperature unless otherwise stated.
All compounds were acoustically dispensed in quadruplicate using a Labcyte Echo.
Calculation of results is performed using APC package within Genedata. For the routine normalization of well data with Neutral and Inhibitor control well groups as reference, GeneData Assay Analyzer uses the following equation to normalize the signal values to the desired signal range:
[formula] x is the measured raw signal value of a well is the median of the measured signal values for the Central Reference (Neutral) wells on a plate is the median of the measured signal values for the Scale Reference (Inhibitor) wells on a plate CR is the desired median normalized value for the Central Reference (Neutral) SR is the desired median normalized value for the Scale Reference (Inhibitor)

[2] = Log D (shake flask, 1-octanol/aqueous buffer); type: physicochemical; details: for logD: 1-octanol/aqueous buffer, pH 7.4, pH 7.4
[3] = Thermodynamic solubility (shake-flask); type: physicochemical; details: phosphate buffer pH 7.4, 24 hours
[4] = Human plasma protein binding (equilibrium dialysis); type: in vitro ADME
Protocol: The automated equilibrium dialysis assay in human plasma uses the RED (Rapid Equilibrium Dialysis) Device and sample handling. The assay generally runs over two to three days including delivery of results. After dialysis for 18 hours, plasma and buffer samples are prepared for analysis by liquid chromatography and mass spectrometry. Samples are generally tested in singlicates and quantified by LC/MSMS by using a 7-point calibration curve in plasma. The compounds are pooled together in plasma pools up to 10 compounds. Three reference compounds are used in each run, Propranolol, Metoprolol and Warfarin. Warfarin is used as a control in each pool and Propranolol and Metoprolol are placed randomly in each run. An in-house Excel macro is used for preparation of files for the robot and the mass spectrometer and is also used for the calculations of fraction unbound (fu %) in plasma.

[5] = target: Estrogen Receptor (ERα) in MCF-7 cells (Homo sapiens (Human), UniProt P03372); test: MCF-7 ER down-regulation assay (immuno-fluorescence); type: cell-based; details: for % downregulation (in brackets): maximum downregulation
Chain of Estrogen Receptor (ERα) in MCF-7 cells (P03372 whole entry): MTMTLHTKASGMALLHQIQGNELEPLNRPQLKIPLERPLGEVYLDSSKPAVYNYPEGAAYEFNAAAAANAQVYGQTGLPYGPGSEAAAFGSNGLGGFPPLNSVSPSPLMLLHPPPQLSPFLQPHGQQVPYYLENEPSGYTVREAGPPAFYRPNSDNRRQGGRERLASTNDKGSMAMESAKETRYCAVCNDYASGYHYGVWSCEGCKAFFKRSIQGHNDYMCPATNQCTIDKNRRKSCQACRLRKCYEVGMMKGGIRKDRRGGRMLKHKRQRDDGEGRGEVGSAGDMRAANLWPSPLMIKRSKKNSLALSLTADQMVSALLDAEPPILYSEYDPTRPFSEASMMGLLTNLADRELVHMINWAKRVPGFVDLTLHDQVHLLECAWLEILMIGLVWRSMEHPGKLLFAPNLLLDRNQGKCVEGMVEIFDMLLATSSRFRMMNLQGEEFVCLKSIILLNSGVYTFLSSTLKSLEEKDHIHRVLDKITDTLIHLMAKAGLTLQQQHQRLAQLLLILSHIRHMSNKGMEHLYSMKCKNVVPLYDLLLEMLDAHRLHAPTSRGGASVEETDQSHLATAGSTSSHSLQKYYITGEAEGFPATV
Protocol: The ability of compounds to down-regulate Estrogen Receptor (ER) numbers was assessed in a cell based immuno-fluorescence assay using the MCF-7 human ductal carcinoma breast cell line. MCF-7 cells were revived directly from a cryovial (approx 5×10^6 cells) in Assay Medium (phenol red free Dulbecco's Modified Eagle's medium (DMEM); Sigma D5921) containing 2 mM L-Glutamine and 5% (v/v) Charcoal/Dextran treated foetal calf serum. Cells were syringed once using a sterile 18G×1.5 inch (1.2×40 mm) broad gauge needle and cell density was measured using a Coulter Counter (Beckman). […] Following cell seeding, plates were incubated overnight at 37° C., 5% CO2 (Liconic carousel incubator). Test data was generated using the LabCyte Echomodel 555 compound reformatter which is part of an automated workcell (Integrated Echo 2 workcell). Compound stock solutions (10 mM) of the test compounds were used to generate a 384 well compound dosing plate (Labcyte P-05525-CV1). […] 40 μL of DMSO added to wells in row P on the source plate allowed for DMSO normalisation across the dose range. To dose the control wells 40 μL of DMSO was added to row O1 and 40 μL of 100 μM fulvestrant in DMSO was added to row O3 on the compound source plate.
The Echo uses acoustic technology to perform direct microplate-to-microplate transfers of DMSO compound solutions to assay plates. The system can be programmed to transfer volumes as low as 2.5 nL in multiple increments between microplates and in so doing generates a serial dilution of compound in the assay plate which is then back-filled to normalise the DMSO concentration across the dilution range. […] The fixing method described above was carried out on the Integrated Echo 2 workcell. Immunostaining was performed using an automated AutoElisa workcell. The PBS/Proclin was aspirated from all wells and the cells permeabilised with 40 μL PBS containing 0.5% Tween™ 20 (v/v) for 1 hour at room temperature. The plates were washed three times in 250 μL of PBS/0.05% (v/v) Tween 20 with Proclin (PBST with a Biocide preservative) and then 20 μL of ERα (SP1) Rabbit monoclonal antibody (Thermofisher) 1:1000 in PBS/Tween™/3% (w/v) Bovine Serum Albumin was added. The plates were incubated overnight at 4° C. (Liconic carousel incubator) and then washed three times in 250 μL of PBS/0.05% (v/v) Tween™ 20 with Proclin (PBST). The plates were then incubated with 20 μL/well of a goat anti-rabbit IgG AlexaFluor 594 or goat anti-rabbit AlexaFluor 488 antibody (Molecular Probes) with Hoechst at 1:5000 in PBS/Tween™/3% (w/v) Bovine Serum Albumin for 1 hour at room temperature. The plates were then washed three times in 250 μL of PBS/0.05% (v/v) Tween™ 20 with Proclin (PBST with a Biocide preservative). 20 μL of PBS was added to each well and the plates covered with a black plate seal and stored at 4° C. before being read. […] The mean total intensity was normalized for cell number giving the total intensity per cell. The data was exported into a suitable software package (such as Origin) to perform curve fitting analysis.

[6] = aqueous phosphate buffer, 25 °C, pH 7.4, aqueous buffer, thermodynamic from solid

Chain of hERG potassium channel (Q12809 whole entry): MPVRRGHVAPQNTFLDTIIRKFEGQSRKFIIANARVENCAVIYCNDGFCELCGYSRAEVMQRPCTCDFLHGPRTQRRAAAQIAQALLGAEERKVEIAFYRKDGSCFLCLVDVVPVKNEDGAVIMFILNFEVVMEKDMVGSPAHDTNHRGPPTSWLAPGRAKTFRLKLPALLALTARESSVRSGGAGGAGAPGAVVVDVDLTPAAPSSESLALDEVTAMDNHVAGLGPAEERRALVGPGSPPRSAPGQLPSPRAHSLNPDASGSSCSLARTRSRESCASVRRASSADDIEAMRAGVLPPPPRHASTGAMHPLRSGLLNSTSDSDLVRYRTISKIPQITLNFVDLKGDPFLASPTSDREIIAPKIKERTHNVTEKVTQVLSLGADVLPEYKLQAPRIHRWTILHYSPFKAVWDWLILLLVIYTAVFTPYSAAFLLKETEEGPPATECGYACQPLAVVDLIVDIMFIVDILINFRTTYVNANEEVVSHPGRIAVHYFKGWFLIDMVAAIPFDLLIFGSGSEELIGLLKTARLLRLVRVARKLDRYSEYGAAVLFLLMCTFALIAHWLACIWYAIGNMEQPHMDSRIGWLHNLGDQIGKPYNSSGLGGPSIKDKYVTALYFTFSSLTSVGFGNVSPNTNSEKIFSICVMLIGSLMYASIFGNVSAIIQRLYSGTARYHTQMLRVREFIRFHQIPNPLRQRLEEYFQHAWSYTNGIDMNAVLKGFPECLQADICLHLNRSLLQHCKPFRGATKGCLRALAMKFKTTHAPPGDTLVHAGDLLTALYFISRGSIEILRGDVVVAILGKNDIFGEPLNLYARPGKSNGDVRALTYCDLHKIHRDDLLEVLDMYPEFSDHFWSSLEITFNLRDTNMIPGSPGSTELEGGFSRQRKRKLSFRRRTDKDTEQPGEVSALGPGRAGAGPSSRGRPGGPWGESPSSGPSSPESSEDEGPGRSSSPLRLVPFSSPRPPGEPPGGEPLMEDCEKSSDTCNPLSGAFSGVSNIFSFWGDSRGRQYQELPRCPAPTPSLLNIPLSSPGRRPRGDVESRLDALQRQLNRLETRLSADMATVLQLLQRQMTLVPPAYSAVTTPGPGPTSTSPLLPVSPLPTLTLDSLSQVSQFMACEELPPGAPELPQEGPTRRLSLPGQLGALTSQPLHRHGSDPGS
Chain of recombinant human Estrogen Receptor alpha ligand binding domain (ER alpha-LBD (GST)) (P03372 307-554): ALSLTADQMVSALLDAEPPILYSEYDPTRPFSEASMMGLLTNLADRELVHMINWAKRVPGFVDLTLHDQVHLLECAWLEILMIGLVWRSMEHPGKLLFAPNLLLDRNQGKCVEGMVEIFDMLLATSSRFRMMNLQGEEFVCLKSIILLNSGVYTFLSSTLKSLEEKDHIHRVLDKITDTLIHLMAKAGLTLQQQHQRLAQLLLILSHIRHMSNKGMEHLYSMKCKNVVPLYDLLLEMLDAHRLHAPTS

Row | Compound | IC50 [1] [nM] | IC50 (hERG potassium channel) [nM] | logD [2] | solubility at 24 h [3, 6] [µM] | Human plasma protein binding (% free) [4] [% free] | IC50 [5] [nM] | % downregulation (in brackets) [5] [%] | LogD pH 7.4 ([2]; pH 7.4) | solubility at 24 h ([3]; 25° C.) [µM]
1 | Cc1ccc2[nH]c3c(c2c1)C[C@@H](C)N(CC(F)(F)CO)[C@@H]3c1c(F)cnc(OCCNCCCF)c1F [Example 66, 3-((1R,3R)-1-(3,5-difluoro-2-(2-((3-fluoropropyl)amino)ethoxy)pyridin-4-yl)-3,6-dimethyl-1,3,4,9-tetrahydro-2H-pyrido[3,4-b]indol-2-yl)-2,2-difluoropropan-1-ol] | 0.71 | 5400 | 3 | 441 (≈ 232 µg/mL) | 1.3 | 0.34 |  |  | 
2 | C[C@@H]1Cc2c([nH]c3ccccc23)[C@@H](c2c(F)ccc(OCCNCCCF)c2Cl)N1CC(F)(F)CO [Example 85, 3-((1R,3R)-1-(2-chloro-6-fluoro-3-(2-((3-fluoropropyl)amino)ethoxy)phenyl)-3-methyl-1,3,4,9-tetrahydro-2H-pyrido[3,4-b]indol-2-yl)-2,2-difluoropropan-1-ol] | 1.3 | 4200 | 3.1 | 224 (≈ 118 µg/mL) | 1.0 | 0.089 |  |  | 
3 | COc1ccc(OCCNCCCF)c(F)c1[C@@H]1c2[nH]c3ccccc3c2C[C@@H](C)N1CC1(F)CC1 [Example 83, 3-fluoro-N-(2-(2-fluoro-3-((1R,3R)-2-((1-fluorocyclopropyl)methyl)-3-methyl-2,3,4,9-tetrahydro-1H-pyrido[3,4-b]indol-1-yl)-4-methoxyphenoxy)ethyl)propan-1-amine] | 1.7 | 4000 | 2.9 | 595 (≈ 298 µg/mL) | 2.5 | 0.28 | 90 |  | 
4 | Cc1c([C@@H]2c3[nH]c4ccccc4c3C[C@@H](C)N2CC(F)(F)CO)ccnc1OCCNCCCF [Example 103, 2,2-difluoro-3-((1R,3R)-1-(2-(2-((3-fluoropropyl)amino)ethoxy)-3-methylpyridin-4-yl)-3-methyl-1,3,4,9-tetrahydro-2H-pyrido[3,4-b]indol-2-yl)propan-1-ol] | 0.56 | 4300 | 2.9 | 660 (≈ 324 µg/mL) | 2 | 0.084 |  |  | 
5 | COc1nnc(OCCNCCCF)cc1[C@@H]1c2[nH]c3ccccc3c2C[C@@H](C)N1CC(F)(F)F [Example 112, 3-fluoro-N-(2-((6-methoxy-5-((1R,3R)-3-methyl-2-(2,2,2-trifluoroethyl)-2,3,4,9-tetrahydro-1H-pyrido[3,4-b]indol-1-yl)pyridazin-3-yl)oxy)ethyl)propan-1-amine] | 2 | 19000 | 3.2 | 92 (≈ 45.6 µg/mL) | 1.5 | 0.95 |  |  | 
6 | COc1ccc(NCCNCCCF)nc1[C@@H]1c2[nH]c3ccccc3c2C[C@@H](C)N1CC(F)(F)F [Example 43, N1-(3-fluoropropyl)-N2-(5-methoxy-6-((1S,3R)-3-methyl-2-(2,2,2-trifluoroethyl)-2,3,4,9-tetrahydro-1H-pyrido[3,4-b]indol-1-yl)pyridin-2-yl)ethane-1,2-diamine] | 82 | 3100 | 2.2 | 358 (≈ 177 µg/mL) | 2.8 | 220 |  |  | 
7 | Cc1ccc(OCCNCCCF)c(C)c1[C@@H]1c2[nH]c3ccccc3c2C[C@@H](C)N1CC(F)(F)F [Example 79, N-(2-(2,4-dimethyl-3-((1R,3R)-3-methyl-2-(2,2,2-trifluoroethyl)-2,3,4,9-tetrahydro-1H-pyrido[3,4-b]indol-1-yl)phenoxy)ethyl)-3-fluoropropan-1-amine] | 1.4 | 10000 | 4.8 | 3.9 (≈ 1.92 µg/mL) | <0.4 | 0.16 |  |  | 
8 | Cc1c(OCCN(C)CCCF)ncc(F)c1[C@@H]1c2[nH]c3ccccc3c2C[C@@H](C)N1C(C)CC(=O)O (single isomer, unassigned) [Example 159] | 0.9 | > 40000 |  |  | 13 | 0.18 |  | 1.7 | >1000
9 | COc1ccc(O[C@H](C)CNCCCF)cc1[C@@H]1c2[nH]c3ccccc3c2C[C@@H](C)N1CC(F)(F)CO [Example 47, 2,2-difluoro-3-((1R,3R)-1-(5-(((R)-1-((3-fluoropropyl)amino)propan-2-yl)oxy)-2-methoxyphenyl)-3-methyl-1,3,4,9-tetrahydro-2H-pyrido[3,4-b]indol-2-yl)propan-1-ol] | 2.5 | 3200 | 2.7 | 488 (≈ 254 µg/mL) | 6.1 | 11 | 81 |  | 
10 | C[C@@H]1Cc2c([nH]c3ccccc23)[C@@H](c2c(Cl)ccc(OCCNCCCF)c2Cl)N1C[C@H](C)C(=O)O [Example 128, (S)-3-((1R,3R)-1-(2,6-dichloro-3-(2-((3-fluoropropyl)amino)ethoxy)phenyl)-3-methyl-1,3,4,9-tetrahydro-2H-pyrido[3,4-b]indol-2-yl)-2-methylpropanoic acid] | 3.4 | > 40000 | 1 | 973 (≈ 522 µg/mL) | 15 | 1.1 |  |  | 
11 | C[C@@H]1Cc2c([nH]c3ccccc23)[C@@H](c2cc(F)cc(OCCNCCCF)c2F)N1CC(F)(F)F [Example 31, N-(2-(2,5-difluoro-3-((1R,3R)-3-methyl-2-(2,2,2-trifluoroethyl)-2,3,4,9-tetrahydro-1H-pyrido[3,4-b]indol-1-yl)phenoxy)ethyl)-3-fluoropropan-1-amine] | 5.4 | 11000 | 4.1 | 40 (≈ 20 µg/mL) | 0.41 | 7.2 |  |  | 
12 | COc1ccc(OCCNCCCF)c(F)c1[C@@H]1c2[nH]c3ccccc3c2C[C@@H](C)N1CC(F)(F)CO [Example 81, 2,2-difluoro-3-((1R,3R)-1-(2-fluoro-3-(2-((3-fluoropropyl)amino)ethoxy)-6-methoxyphenyl)-3-methyl-1,3,4,9-tetrahydro-2H-pyrido[3,4-b]indol-2-yl)propan-1-ol] | > 110 | 3900 | 2.6 | 736 (≈ 385 µg/mL) | 2.9 | 0.17 |  |  | 
13 | Cc1c(OCCN(C)CCCF)ncc(F)c1[C@@H]1c2[nH]c3ccccc3c2C[C@@H](C)N1C(C)CC(=O)O (single isomer, unassigned) [Example 158] | 1.5 | > 40000 | 1.8 | > 1000 | 21 | 1 |  |  | 
14 | C[C@@H]1Cc2c([nH]c3ccccc23)[C@@H](c2c(F)ccc(OCCN(C)CCCF)c2F)N1CC1(F)COC1 [Example 154, N-(2-(2,4-difluoro-3-((1R,3R)-2-((3-fluorooxetan-3-yl)methyl)-3-methyl-2,3,4,9-tetrahydro-1H-pyrido[3,4-b]indol-1-yl)phenoxy)ethyl)-3-fluoro-N-methylpropan-1-amine] | 1.2 | 4300 | 3.5 | 49 (≈ 25.5 µg/mL) | 2.7 | 0.89 | 79 |  | 
15 | Cc1c(OCCN(C)CCCF)ccc(F)c1[C@@H]1c2[nH]c3ccccc3c2C[C@@H](C(F)(F)F)N1C[C@H](C)C(=O)O [Example 149, (S)-3-((1R,3S)-1-(6-fluoro-3-(2-((3-fluoropropyl)(methyl)amino)ethoxy)-2-methylphenyl)-3-(trifluoromethyl)-1,3,4,9-tetrahydro-2H-pyrido[3,4-b]indol-2-yl)-2-methylpropanoic acid] | 1.5 | > 40000 | 2.2 | 523 (≈ 297 µg/mL) | 5.3 | 0.85 | 86 |  | 
16 | C[C@@H]1Cc2c([nH]c3ccccc23)[C@@](C)(c2cccc(OCCNCCCF)c2)N1CC(F)(F)F [Example 75, N-(2-(3-((1R,3R)-1,3-dimethyl-2-(2,2,2-trifluoroethyl)-2,3,4,9-tetrahydro-1H-pyrido[3,4-b]indol-1-yl)phenoxy)ethyl)-3-fluoropropan-1-amine] | 52 | 7700 | 4.5 | 0.9 (≈ 0.43 µg/mL) | 0.08 | 58 |  |  | 
17 | COc1ccc(OCCNCCCF)c(F)c1[C@@H]1c2[nH]c3ccc(F)cc3c2C[C@@H](C)N1CC(F)(F)CO [Example 86, 2,2-difluoro-3-((1R,3R)-6-fluoro-1-(2-fluoro-3-(2-((3-fluoropropyl)amino)ethoxy)-6-methoxyphenyl)-3-methyl-1,3,4,9-tetrahydro-2H-pyrido[3,4-b]indol-2-yl)propan-1-ol] | 0.86 | 3900 | 2.9 | 385 (≈ 209 µg/mL) | 2.6 | 0.17 |  |  | 
18 | COc1ccc(OCCNCCCF)c(C)c1[C@@H]1c2[nH]c3ccccc3c2C[C@@H](C)N1CC(F)(F)F [Example 26, 3-fluoro-N-(2-(4-methoxy-2-methyl-3-((1R,3R)-3-methyl-2-(2,2,2-trifluoroethyl)-2,3,4,9-tetrahydro-1H-pyrido[3,4-b]indol-1-yl)phenoxy)ethyl)propan-1-amine] | 0.85 | 4100 | 4.6 | 8 (≈ 4.06 µg/mL) | 0.22 | 0.16 |  |  | 

— patent publication US10221173B2, “Chemical compounds” (AstraZeneca AB, priority 2017, dated 2019)
